pIC50: −log10 of the molar value. Counter-ions that a name gives are not always drawn.
Target: T1, HIV protease (Human immunodeficiency virus type 1 group M subtype B, UniProt P04585)
T1 construct: HIV protease consists of 99 amino acids and is evidently split off by itself from the pol polyprotein
Assay: Inhibition of HIV protease (cleavage of H-Ser-Phe-Asn-Phe-Opr-Gln-Ile-OH, HPLC)
Format: biochemical
Conditions: not given
From the text: The compounds of the formula (I) according to the invention have enzyme-inhibiting properties. In particular, they inhibit the action of retroviral aspartyl proteases, such as that of HIV protease. Their enzyme-inhibitory action, which is in the milli- to subnanomolar range, can be determined as follows.
The heptapeptide: H-Ser-Phe-Asn-Phe-Pro-Gln-Ile-OH (P. L. Darke et al., Biophys. Res. Commun. 156 (1988) 297-303), inter alia, has hitherto been used as the substrate of HIV protease. HIV protease cleaves the substrate here between the second Phe and Pro.
General instructions for testing inhibitors of HIV proteases: a) Preparation of the substrate solution:
2 mg of H-Ser-Phe-Asn-Phe-Opr-Gln-Ile-OH (H-Opr-OH=5-oxaproline) are dissolved in 1 ml of MGTE15 buffer (use of ultrasound if necessary) and the solution is then filtered over a sterile filter (0.45 μm). […]
b) Preparation of the inhibitor solution:
2.5 times the desired molarity of the inhibitor per ml of solution are weighed out and dissolved in DMSO (10% of the final volume). The solution is diluted to the final volume with MGTE15 buffer and filtered over a sterile filter (0.45 μm). […]
c) Preparation of the protease solution:
5 μl of the HIV protease solution are diluted with MGTE25 buffer as required.
10 μl portions of the substrate solution are pipetted into test-tubes (16×100) with a screw cap. For the blank experiment, 10 μl of MGTE15 buffer containing 10% of DMSO are pipetted into a test-tube. 10 μl portions of the inhibitor solutions are added to the other test-tubes. The mixtures are incubated at 37° C. for 5-10 minutes and 5 μl of the protease solution are then added to each sample, After reaction at 35° C. for 2 hours, 10 or 20 μl (depending on the sensitivity of the HPLC apparatus) of each sample are then pipetted off, introduced into microvials and diluted with 120 μl of the HPLC mobile phase. […]
e) Conditions for the HPLC analysis:
20% (weight/weight) of aceto-
Column: Merck ®LICHROSORB RP18 (5 μm) 250×4
Column temperature: 42° C.
Detector parameters: 215 nm, 0.08 AUF, 18.2° C.
Analysis time: 11 minutes
Retention time of the substrate: 8.1 minutes
Retention time of the N-terminal tetrapeptide: 3.9 minutes
20 mM morpholinoethanesulfonic acid (MES)
15% (weight/volume) of glycerol
0.1% (volume/volume) of Triton ×100
1 mM phenylmethylsulfonyl fluoride (PMSF)
25% (weight/volume) of glycerol, additionally 1 mM dithiothreitol (DTT) The MES, EDTA, NaCl, DTT and PMSF are weighed into a conical flask and dissolved in a little water and the pH is brought to 6. The corresponding amount of glycerol is weighed into a measuring flask and ®Triton ×100 is pipetted in. The aqueous solution is transferred to the measuring flask and made up to the mark with water.
A 0.1M solution is prepared from orthophosphoric acid (FLUKA extra pure analytical grade). This solution is brought to exactly pH 2.5 with triethylamine (FLUKA extra pure analytical grade). The weight of the solution is determined and the corresponding amount of acetonitrile (fume cupboard) is weighed in. The mixture is mixed thoroughly and degassed with helium 5.0 for about 5 minutes.
Under the conditions chosen here, heptapeptides are separated from the N-terminal tetrapeptide formed during enzymatic cleavage. The percentage content of the tetrapeptide peak in respect of the sum of tetrapeptide+heptapeptide corresponds to the cleaving rate. The following IC50 values indicate the inhibitor concentration at which the cleavage rate is halved.

| SMILES | pIC50 |
| --- | --- |
| CC(C)[C@H](NC(=O)[C@H](Cc1ccccc1)NC(=O)[C@H](COC(C)(C)C)NC(=O)OC(C)(C)C)C(=O)N[C@@H](Cc1ccccc1)[C@@H](O)[C@H](O)[C@H](Cc1ccccc1)NC(=O)[C@@H](NC(=O)[C@H](Cc1ccccc1)NC(=O)[C@H](COC(C)(C)C)NC(=O)OC(C)(C)C)C(C)C [Example 15, N,N'-bis-(tert.-Butoxycarbonyl-L-(O-tert.-butylseryl)-L-phenylalanyl-L-valyl)-2S,5S-diamino-1,6-diphenyl-hexane-3R,4R-diol] | 6.40 |

Same assay, conditions: inhibitor concentration at which the cleavage rate is halved; pH 6, 2 hours; read-out: IC50

| pIC50 | SMILES |
| --- | --- |
| 9.10 | CC(C)[C@H](NC(=O)[C@H](Cc1cccc2ccccc12)CS(=O)(=O)C(C)(C)C)C(=O)N[C@@H](Cc1ccccc1)[C@H](O)[C@@H](O)[C@H](Cc1ccccc1)NC(=O)[C@@H](NC(=O)[C@H](Cc1cccc2ccccc12)CS(=O)(=O)C(C)(C)C)C(C)C [Example 51, N,N'-bis-<(2S-(1,1-Dimethylethylsulfonylmethyl)-3-(1-naphthyl)-propionyl)-L-valyl>-2S,5S-diamino-1,6-diphenyl-hexane-3S,4S-diol] |
| 7.52 | CC[C@H](C)[C@H](NC(=O)[C@H](Cc1cccc2ccccc12)CS(=O)(=O)C(C)(C)C)C(=O)N[C@@H](Cc1ccccc1)[C@@H](O)[C@H](O)[C@H](Cc1ccccc1)NC(=O)[C@@H](NC(=O)[C@H](Cc1cccc2ccccc12)CS(=O)(=O)C(C)(C)C)[C@@H](C)CC [Example 156, N,N'-bis-(<2S-(1,1-Dimethylethylsulfonylmethyl)-3-(1-naphthyl)-propionyl>-L-isoleucyl)-2S,5S-diamino-1,6-diphenylhexane-3R,4R-diol] |
| 7.31 | CC(C)[C@H](NC(=O)Cc1ccccn1)C(=O)N[C@@H](Cc1ccccc1)[C@@H](O)[C@H](O)[C@H](Cc1ccccc1)NC(=O)[C@@H](NC(=O)Cc1ccccn1)C(C)C [Example 58, N,N'-bis-<(2-Pyridyl)-acetyl-L-valyl>-2S,5S-diamino-1,6-diphenylhexane-3R,4R-diol] |
| 6.42 | CC(C)[C@H](NC(=O)C(Cc1ccccc1)Cn1ccnc1)C(=O)N[C@@H](Cc1ccccc1)[C@H](O)[C@@H](O)[C@H](Cc1ccccc1)NC(=O)[C@@H](NC(=O)C(Cc1ccccc1)Cn1ccnc1)C(C)C (single isomer, unassigned) [Example 95, N,N'-bis-<(2-(1-Imidazolylmethyl)-3-phenylpropionyl)-L-valyl->-2S,5S-diamino-1,6-diphenylhexane-3S,4S-diol] |
| 9.00 | CC(C)[C@H](NC(=O)[C@H](Cc1ccccc1)NC(=O)[C@@H](N)CO)C(=O)N[C@@H](Cc1ccccc1)[C@@H](O)[C@H](O)[C@H](Cc1ccccc1)NC(=O)[C@@H](NC(=O)[C@H](Cc1ccccc1)NC(=O)[C@@H](N)CO)C(C)C [Example 14, N,N'-bis-(L-Seryl-L-phenylalanyl-L-valyl)-2S,5S-diamino-1,6-diphenylhexane-3R,4R-diol dihydrochloride] |
| 6.55 | CC(C)[C@H](NC(=O)[C@@H](N)Cc1ccccc1)C(=O)N[C@@H](CCc1ccncc1)[C@@H](O)[C@H](O)[C@H](CCc1ccncc1)NC(=O)[C@@H](NC(=O)[C@@H](N)Cc1ccccc1)C(C)C [Example 108, N,N'-bis-(L-Phenylalanyl-L-valyl)-3S,6S-diamino-1,8-di(4-pyridyl)-octane-,5R-diol tetrahydrochloride] |
| 7.52 | CC(C)[C@H](NC(=O)[C@@H](N)Cc1ccccc1)C(=O)N[C@H](Cc1ccccc1)[C@@H](O)[C@H](O)[C@@H](Cc1ccccc1)NC(=O)[C@@H](NC(=O)[C@@H](N)Cc1ccccc1)C(C)C [Example 30, N,N'-bis-(L-Phenylalanyl-L-valyl)-2R,5R-diamino-1,6-diphenylhexane-3R,4R-diol dihydrochloride] |
| 8.80 | CC(C)C[C@H](N)C(=O)N[C@H](C(=O)N[C@@H](Cc1ccccc1)[C@H](O)[C@@H](O)[C@H](Cc1ccccc1)NC(=O)[C@@H](NC(=O)[C@@H](N)CC(C)C)C(C)C)C(C)C [Example 87, N,N'-bis-<L-Leucyl-L-valyl>-2S,5S-diamino-1,6-diphenyl-hexane-3S,4S-dioldihydrochloride] |
| 5.66 | CC(C)[C@H](NC(=O)[C@H](CC1CCCCC1)NC(=O)OC(C)(C)C)C(=O)N[C@@H](Cc1ccccc1)[C@@H](O)[C@H](O)[C@H](Cc1ccccc1)NC(=O)[C@@H](NC(=O)[C@H](CC1CCCCC1)NC(=O)OC(C)(C)C)C(C)C [Example 115, N,N'-bis-<tert.-Butyloxycarbonyl-L-cyclohexylalanyl-L-valyl>-2S,5S-diamino-1,6-diphenylhexane-3R,4R-diol] |
| 8.77 | CSCC[C@H](N)C(=O)N[C@H](C(=O)N[C@@H](Cc1ccccc1)[C@H](O)[C@@H](O)[C@H](Cc1ccccc1)NC(=O)[C@@H](NC(=O)[C@@H](N)CCSC)C(C)C)C(C)C [Example 74, N,N'-bis-<L-Methionyl-L-valyl>-2S,5S-diamino-1,6-diphenylhexane-3S,4S-dioldihydrochloride] |

| SMILES | pIC50 |
| --- | --- |
| CC(C)[C@H](NC(=O)[C@@H](Cc1ccccc1)NC(=O)OC(C)(C)C)C(=O)N[C@@H](Cc1ccccc1)[C@H](O)[C@@H](O)[C@H](Cc1ccccc1)NC(=O)[C@@H](NC(=O)[C@@H](Cc1ccccc1)NC(=O)OC(C)(C)C)C(C)C [Example 63, N,N'-bis-<tert.-Butoxycarbonyl-D-phenylalanyl-L-valyl>-2S,5S-diamino-1,6-diphenylhexane-3S,4S-diol] | 8.19 |
| CC(C)[C@H](NC(=O)[C@H](Cc1ccccc1)NC(=O)OC(C)(C)C)C(=O)N[C@@H](Cc1ccccc1)[C@H](O)[C@@H](O)[C@H](Cc1ccccc1)NC(=O)[C@@H](NC(=O)[C@H](Cc1ccccc1)NC(=O)OC(C)(C)C)C(C)C [Example 6, N,N'-bis-(tert.-Butoxycarbonyl-L-phenylalanyl-L-valyl)-2S,5S-diamino-1,6-diphenylhexane-3S,4S-diol] | 8.06 |
| CC(C)[C@H](NC(=O)[C@H](CCCCN)NC(=O)OC(C)(C)C)C(=O)N[C@@H](Cc1ccccc1)[C@@H](O)[C@H](O)[C@H](Cc1ccccc1)NC(=O)[C@@H](NC(=O)[C@H](CCCCN)NC(=O)OC(C)(C)C)C(C)C [Example 11, N,N'-bis-(Nα-<tert.-Butoxycarbonyl>-L-lysyl-L-valyl)-2S,5S-diamino-1,6-diphenyl-hexane-3R,4R-diol dihydrochloride] | 9.10 |
| CC(C)[C@H](NC(=O)[C@H](CCS(C)(=O)=O)NC(=O)OC(C)(C)C)C(=O)N[C@@H](Cc1ccccc1)[C@@H](O)[C@H](O)[C@H](Cc1ccccc1)NC(=O)[C@@H](NC(=O)[C@H](CCS(C)(=O)=O)NC(=O)OC(C)(C)C)C(C)C [Example 90, N,N'-bis-<tert.-Butoxycarbonyl-L-(S-dioxo)methionyl-L-valyl>-2S,SS-diamino-1,6-diphenylhexane-3R,4R-diol] | 8.66 |
| CC(C)(C)OC(=O)N[C@@H](CC1CCCCC1)[C@H](O)[C@H](O)[C@H](CC1CCCCC1)NC(=O)OC(C)(C)C [Example 48, N,N'-bis-(tert.-Butoxycarbonyl)-2S, 5S-diamino-1,6-dicyclohexylhexane-3R, 4S-diol] | 4.10 |
| CCCCC[C@H](NC(=O)[C@@H](NC(=O)[C@H](Cc1ccccc1)NC(=O)OC(C)(C)C)C(C)C)[C@@H](O)[C@H](O)[C@H](CCCCC)NC(=O)[C@@H](NC(=O)[C@H](Cc1ccccc1)NC(=O)OC(C)(C)C)C(C)C [Example 150, N,N'-bis-(tert.-Butoxycarbonyl-L-phenylalanyl-L-valyl)-6S,9S-diaminotetradecane-7R, 8R-diol] | 7.02 |

Same assay, conditions: inhibitor concentration at which the cleavage rate is halved; unit as printed for Ex. 8; read-out: IC50

| SMILES | pIC50 |
| --- | --- |
| CC(C)[C@H](NC(=O)OC(C)(C)C)C(=O)N[C@@H](Cc1ccccc1)[C@H](O)[C@@H](O)[C@H](Cc1ccccc1)NC(=O)[C@@H](NC(=O)OC(C)(C)C)C(C)C [Example 8, N,N'-bis-(tert.-Butoxycarbonyl-L-valyl)-2S,5S-diamino-1,6-diphenylhexane-3S,4S-diol] | 4.52 |
